{"source": "ChEMBL document CHEMBL6134779", "about": "“Design of Proteolytic-Resistant Antifungal Peptides by Utilizing Minimum d-Amino Acid Ratios” (J Med Chem, 2024)", "type_in_all_cases": "functional", "key": {"Candida albicans [1]": {"tested_on": "Candida albicans", "experiment": "Antifungal activity against Candida albicans CGMCC 2.2086 assessed as inhibition of fungal growth incubated for 48 hrs"}, "Candida tropicalis": {"tested_on": "Candida tropicalis", "experiment": "Antifungal activity against Candida tropicalis CGMCC 2.1975 assessed as inhibition of fungal growth incubated for 48 hrs"}, "Candida albicans [2]": {"tested_on": "Candida albicans", "experiment": "Antifungal activity against Candida albicans SP3902 assessed as inhibition of fungal growth incubated for 48 hrs"}, "Candida albicans [3]": {"tested_on": "Candida albicans", "experiment": "Antifungal activity against Candida albicans SP3903 assessed as inhibition of fungal growth incubated for 48 hrs"}, "Candida albicans [4]": {"tested_on": "Candida albicans", "experiment": "Antifungal activity against Fluconazole-resistant Candida albicans 58288 assessed as inhibition of fungal growth incubated for 48 hrs"}, "Candida albicans [5]": {"tested_on": "Candida albicans", "experiment": "Antifungal activity against Candida albicans SP3876 assessed as inhibition of fungal growth incubated for 48 hrs"}, "Candida albicans [6]": {"tested_on": "Candida albicans", "experiment": "Antifungal activity against Candida albicans SP3931 assessed as inhibition of fungal growth incubated for 48 hrs"}, "Candida albicans [7]": {"tested_on": "Candida albicans", "experiment": "Antifungal activity against Candida albicans 14936 assessed as inhibition of fungal growth incubated for 48 hrs"}, "Candida albicans [8]": {"tested_on": "Candida albicans", "experiment": "Antifungal activity against Candida albicans 17546 assessed as inhibition of fungal growth incubated for 48 hrs"}, "Candida albicans [9]": {"tested_on": "Candida albicans", "experiment": "Antifungal activity against Fluconazole-resistant Candida albicans 56214 assessed as inhibition of fungal growth incubated for 48 hrs"}, "Candida albicans [10]": {"tested_on": "Candida albicans", "experiment": "Antifungal activity against Candida albicans 56452 assessed as inhibition of fungal growth incubated for 48 hrs"}, "Candida parapsilosis": {"tested_on": "Candida parapsilosis", "experiment": "Antifungal activity against Candida parapsilosis CGMCC 2.3989 assessed as inhibition of fungal growth incubated for 48 hrs", "details": "Lodderomyces parapsilosis"}, "Candida albicans [11]": {"tested_on": "Candida albicans", "experiment": "Resistance development in Candida albicans CGMCC 2.2086 assessed as fold increase in MIC after 20 passages by broth microdilution method relative to control"}, "Candida albicans [12]": {"tested_on": "Candida albicans", "experiment": "Resistance development in Candida albicans CGMCC 2.2086 assessed as fold increase in MIC after 30 passages by broth microdilution method relative to control"}}}
{"smiles": "OC(Cn1cncn1)(Cn1cncn1)c1ccc(F)cc1F", "note": "[FLUCONAZOLE]", "values": [{"measurement": "MIC95", "setting": "Candida albicans [1]", "value": 4, "unit": "µM"}, {"measurement": "MIC95", "setting": "Candida tropicalis", "value": 1, "unit": "µM"}, {"measurement": "MIC95", "setting": "Candida albicans [2]", "value": 4, "unit": "µM"}, {"measurement": "MIC95", "setting": "Candida albicans [3]", "value": 2, "unit": "µM"}, {"measurement": "MIC95", "setting": "Candida albicans [4]", "value": "> 64", "unit": "µM"}, {"measurement": "MIC95", "setting": "Candida albicans [5]", "value": 8, "unit": "µM"}, {"measurement": "MIC95", "setting": "Candida albicans [6]", "value": 2, "unit": "µM"}, {"measurement": "MIC95", "setting": "Candida albicans [7]", "value": 2, "unit": "µM"}, {"measurement": "MIC95", "setting": "Candida albicans [8]", "value": 1, "unit": "µM"}, {"measurement": "MIC95", "setting": "Candida albicans [9]", "value": "> 64", "unit": "µM"}, {"measurement": "MIC95", "setting": "Candida albicans [10]", "value": 2, "unit": "µM"}, {"measurement": "MIC95", "setting": "Candida parapsilosis", "value": 4, "unit": "µM"}, {"measurement": "fold change (FC)", "setting": "Candida albicans [11]", "value": 64}, {"measurement": "fold change (FC)", "setting": "Candida albicans [12]", "value": 128}]}
